Target: T1, GCS (Canis lupus familiaris, UniProt A0A8I3MXG6)
T1 sequence (A0A8I3MXG6 1-394): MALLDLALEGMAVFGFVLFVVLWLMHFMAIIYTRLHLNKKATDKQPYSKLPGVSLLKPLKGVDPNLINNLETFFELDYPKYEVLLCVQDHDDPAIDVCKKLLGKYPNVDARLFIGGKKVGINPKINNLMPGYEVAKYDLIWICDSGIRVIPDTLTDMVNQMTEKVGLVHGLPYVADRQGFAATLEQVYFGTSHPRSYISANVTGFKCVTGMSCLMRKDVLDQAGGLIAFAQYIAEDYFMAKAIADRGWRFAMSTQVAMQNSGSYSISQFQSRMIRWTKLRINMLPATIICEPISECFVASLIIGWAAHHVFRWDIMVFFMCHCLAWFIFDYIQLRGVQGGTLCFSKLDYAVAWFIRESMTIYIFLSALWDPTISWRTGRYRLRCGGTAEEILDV
Assay: Assay 1: GCS Enzymatic Assay (MDCK cell lysate, C6-NBD-Ceramide, LC/MS)
Format: biochemical, canine
Conditions: Table 1, MDCK cell lysate; for IC50: read-out: IC50 (nM) generated from Assay 1; for % inhibition generated from Assay 1: values marked *
Protocol: This assay was modified based on the study by Larsen et al. (J. Lipid Res. 2011, 53, 282). Madin-Darby canine kidney (MDCK) cell lysate was prepared using M-PER Mammalian Protein Extraction Reagent (Thermal Scientific) in the presence of a protease inhibitor cocktail (Roche). Protein concentration was determined using BCA assay kit (Pierce). Sixty micrograms of MDCK cell lysate was incubated with various concentrations of a compound described herein from 0.001 μM-10 μM, respectively, in 100 mM Tris buffer (pH 7.5) containing 10 mM MgCl2, 1 mM dithiothreitol, 1 mM EGTA, 2 mM NAD, 100 μM UDP-glucose, 10 μM C6-NBD-Ceramide (Matreya LLC, Pleasant Gap, Pa.), 35 μM dioleoylphosphatidylcholine and 5 μM sulfatide (Sigma) in a final reaction volume of 100 μL at 37° C. for 1 hour. 0.1% DMSO was used as mock treatment or control. The reaction was terminated by adding 100 μL acetonitrile solution and subjected to LC/MS analysis.
The quantitative analysis of NBD-Ceramide and glucosylceramide was performed on a Shimadzu ultra-fast liquid chromatography (Shimadzu, Japan) coupled with API 4000 triple quadrupole mass spectrometer (Applied Biosystems, Concord, Ontario, Canada). Sample separation was conducted on a Waters Xbridge™ BEH130 C18, 100 mm×4.6 mm i.d, 3.5 μm (Milford, Mass., USA). The mobile phase consisted of water and acetonitrile supplemented with 0.1% formic acid (v/v). The flow rate was 1.0 mL/min. The initial mobile phase was 20% acetonitrile and was ramped in a linear fashion to 50% acetonitrile in 0.4 min. From 0.4 to 1.5 min, the gradient was ramped to 98% acetonitrile, and then was held at […] until 8.0 min. Acetonitrile was reset to 20% in 1.5 min, and maintained until 10.0 min. The total run time was 10.0 min. The MS/MS detection was performed in ESI positive mode. The mass transition of NBD-Ceramide was m/z 576.36→558.40 under the collision energy of 15 V, and the mass transition of glucosylceramide was m/z 738.35→558.40 under 21V collision energy. The cell lysate was diluted with equal volume of acetonitrile. Aliquots of 50 μL diluted samples were added to 1.5 mL tubes, and 100 μL of acetonitrile containing internal standard (100 ng/mL tolbutamide) were added for protein precipitation. The mixture were vortexed and then centrifuged at 13000 rpm for 10 min. 70 μL of supernatant were mixed with 140 μL of H2O and the final solution were injected for LC/MS/MS analysis and IC50's and/or percent inhibitions calculated.

With `O=C(N[C@H](CN1CCCC1)[C@H](O)c1ccc2c(c1)OCCO2)C(F)(F)c1cc2cc(Cl)ccc2o1` [Compound 11, 2-(5-chlorobenzofuran-2-yl)-N-((1R,2R)-1-(2,3-dihydrobenzo[b][1,4]dioxin-6-yl)-1-hydroxy-3-(pyrrolidin-1-yl)propan-2-yl)-2,2-difluoroacetamide] the IC50 was < 50 nM.
Compound `O=C(N[C@H](CN1CCCC1)[C@@H](O)c1cc2c(cc1F)OCCO2)C(F)(F)C1Cc2ccccc2C1` [Compound 12B, 2-(2,3-dihydro-1H-inden-2-yl)-2,2-difluoro-N-((1S,2R)-1-(7-fluoro-2,3-dihydrobenzo[b][1,4]dioxin-6-yl)-1-hydroxy-3-(pyrrolidin-1-yl)propan-2-yl)acetamide] has an IC50 of 50 to 5000 nM.
Compound `O=C(N[C@H](CN1CCCC1)[C@H](O)c1ccc2c(c1)OCCO2)C(F)(F)C1Cc2cc3nccnc3cc2C1` [Compound 13, 2-(7,8-dihydro-6H-cyclopenta[g]quinoxalin-7-yl)-N-((1R,2R)-1-(2,3-dihydrobenzo[b][1,4]dioxin-6-yl)-1-hydroxy-3-(pyrrolidin-1-yl)propan-2-yl)-2,2-difluoroacetamide] has an IC50 of 50 to 5000 nM.
In the case of `Cn1c(C(F)(F)C(=O)N[C@H](CN2CCCC2)[C@H](O)c2ccc3c(c2)OCCO3)cc2cc(Cl)ccc21` [Compound 14, 2-(5-chloro-1-methyl-1H-indol-2-yl)-N-((1R,2R)-1-(2,3-dihydrobenzo[b][1,4]dioxin-6-yl)-1-hydroxy-3-(pyrrolidin-1-yl)propan-2-yl)-2,2-difluoroacetamide], the IC50 is reported as < 50 nM.
For `O=C(N[C@H](CN1CCCC1)[C@H](O)c1ccc2c(c1)OCCO2)C(F)(F)c1cc2cc(Cl)cc(Cl)c2o1` [Compound 15, 2-(5,7-dichlorobenzofuran-2-yl)-N-((1R,2R)-1-(2,3-dihydrobenzo[b][1,4]dioxin-6-yl)-1-hydroxy-3-(pyrrolidin-1-yl)propan-2-yl)-2,2-difluoroacetamide], the IC50 was < 50 nM.
With `O=C(N[C@H](CN1CCCC1)[C@H](O)c1ccc2c(c1)OCCO2)C(F)(F)CCc1cccc(-c2ccccn2)c1` [Compound 16, N-((1R,2R)-1-(2,3-dihydrobenzo[b][1,4]dioxin-6-yl)-1-hydroxy-3-(pyrrolidin-1-yl)propan-2-yl)-2,2-difluoro-4-(3-(pyridin-2-yl)phenyl)butanamide] the IC50 was < 50 nM.
`O=C(N[C@H](CN1CCCC1)[C@H](O)c1ccc2c(c1)OCCO2)C(F)(F)Cc1ccc2ccccc2c1` [Compound 17, N-((1R,2R)-1-(2,3-dihydrobenzo[b][1,4]dioxin-6-yl)-1-hydroxy-3-(pyrrolidin-1-yl)propan-2-yl)-2,2-difluoro-3-(naphthalen-2-yl)propanamide] was tested, and the IC50 was 50 to 5000 nM.
For `O=C(N[C@H](CN1CCCC1)[C@H](O)c1ccc2c(c1)OCCO2)C(F)(F)c1cc2cc(Cl)c(Cl)cc2o1` [Compound 18, 2-(5,6-dichlorobenzofuran-2-yl)-N-((1R,2R)-1-(2,3-dihydrobenzo[b][1,4]dioxin-6-yl)-1-hydroxy-3-(pyrrolidin-1-yl)propan-2-yl)-2,2-difluoroacetamide], the “% inhibition generated from Assay 1” value was “B* (the compound had a % inhibition of greater than or equal to about 3% but less than about 50%)”.
In the case of `O=C(N[C@H](CN1CCCC1)[C@H](O)c1ccc2c(c1)OCCO2)C(F)(F)c1cc2c(Cl)c(Cl)ccc2o1` [Compound 19, 2-(4,5-dichlorobenzofuran-2-yl)-N-((1R,2R)-1-(2,3-dihydrobenzo[b][1,4]dioxin-6-yl)-1-hydroxy-3-(pyrrolidin-1-yl)propan-2-yl)-2,2-difluoroacetamide], the IC50 is reported as < 50 nM.
In the case of `O=C(N[C@H](CN1CCCC1)[C@H](O)c1ccc2c(c1)OCCO2)C(F)(F)Cc1cccc(-c2ccccn2)c1` [Compound 20, N-((1R,2R)-1-(2,3-dihydrobenzo[b][1,4]dioxin-6-yl)-1-hydroxy-3-(pyrrolidin-1-yl)propan-2-yl)-2,2-difluoro-3-(3-(pyridin-2-yl)phenyl)propanamide], the “% inhibition generated from Assay 1” value is reported as “B* (the compound had a % inhibition of greater than or equal to about 3% but less than about 50%)”.
In the case of `O=C(N[C@H](CN1CCCC1)[C@H](O)c1ccc2c(c1)OCCO2)C(F)(F)C1Cc2ccc(F)cc2C1` (stereo partly drawn) [Compound 21, N-((1R,2R)-1-(2,3-dihydrobenzo[b][1,4]dioxin-6-yl)-1-hydroxy-3-(pyrrolidin-1-yl)propan-2-yl)-2,2-difluoro-2-(5-fluoro-2,3-dihydro-1H-inden-2-yl)acetamide], the IC50 is reported as < 50 nM.
In the case of `O=C(N[C@H](CN1CCCC1)[C@H](O)c1ccc2c(c1)OCCO2)C(F)(F)CCc1ccc2ccccc2c1` [Compound 22, N-((1R,2R)-1-(2,3-dihydrobenzo[b][1,4]dioxin-6-yl)-1-hydroxy-3-(pyrrolidin-1-yl)propan-2-yl)-2,2-difluoro-4-(naphthalen-2-yl)butanamide], the IC50 is reported as < 50 nM.
For `O=C(N[C@H](CN1CCCC1)[C@@H](O)c1ccc2c(c1)OCCO2)C(F)(F)CCc1ccc2ccccc2c1` [Compound 22K, N-((1S,2R)-1-(2,3-dihydrobenzo[b][1,4]dioxin-6-yl)-1-hydroxy-3-(pyrrolidin-1-yl)propan-2-yl)-2,2-difluoro-4-(naphthalen-2-yl)butanamide], the “% inhibition generated from Assay 1” value was “B* (the compound had a % inhibition of greater than or equal to about 3% but less than about 50%)”.
In the case of `O=C(N[C@H](CN1CCCC1)[C@H](O)c1ccc2c(c1)OCCO2)C(F)(F)c1cc2ccccc2o1` [Compound 23, 2-(benzofuran-2-yl)-N-((1R,2R)-1-(2,3-dihydrobenzo[b][1,4]dioxin-6-yl)-1-hydroxy-3-(pyrrolidin-1-yl)propan-2-yl)-2,2-difluoroacetamide], the IC50 is reported as < 50 nM.
With `O=C(N[C@H](CN1CCCC1)[C@H](O)c1ccc2c(c1)OCCO2)C(F)(F)c1cc2cc(F)ccc2o1` [Compound 24, N-((1R,2R)-1-(2,3-dihydrobenzo[b][1,4]dioxin-6-yl)-1-hydroxy-3-(pyrrolidin-1-yl)propan-2-yl)-2,2-difluoro-2-(5-fluorobenzofuran-2-yl)acetamide] the IC50 was < 50 nM.
For `O=C(N[C@H](CN1CCCC1)[C@H](O)c1ccc2c(c1)OCCO2)C(F)(F)/C=C/c1ccc(Cl)cc1` [Compound 25, (E)-4-(4-chlorophenyl)-N-((1R,2R)-1-(2,3-dihydrobenzo[b][1,4]dioxin-6-yl)-1-hydroxy-3-(pyrrolidin-1-yl)propan-2-yl)-2,2-difluorobut-3-enamide], the “% inhibition generated from Assay 1” value was “B* (the compound had a % inhibition of greater than or equal to about 3% but less than about 50%)”.
For `NC1CC2CCC(C1)N2C[C@@H](NC(=O)C(F)(F)c1cc2cc(Cl)ccc2o1)[C@H](O)c1ccc2c(c1)OCCO2` (stereo partly drawn) [Compound 26, N-((1R,2R)-3-(3-amino-8-azabicyclo[3.2.1]octan-8-yl)-1-(2,3-dihydrobenzo[b][1,4]dioxin-6-yl)-1-hydroxypropan-2-yl)-2-(5-chlorobenzofuran-2-yl)-2,2-difluoroacetamide], the “% inhibition generated from Assay 1” value was “B* (the compound had a % inhibition of greater than or equal to about 3% but less than about 50%)”.
In the case of `O=C(N[C@H](CN1CCCC1)[C@H](O)c1ccc2c(c1)OCCO2)C(F)(F)c1cc2cc(F)ccc2s1` [Compound 28, N-((1R,2R)-1-(2,3-dihydrobenzo[b][1,4]dioxin-6-yl)-1-hydroxy-3-(pyrrolidin-1-yl)propan-2-yl)-2,2-difluoro-2-(5-fluorobenzo[b]thiophen-2-yl)acetamide], the IC50 is reported as < 50 nM.
With `O=C(N[C@H](CN1CCCC1)[C@H](O)c1ccc2c(c1)OCCO2)C(F)(F)c1cc2cc(C(F)(F)F)ccc2o1` [Compound 30, N-((1R,2R)-1-(2,3-dihydrobenzo[b][1,4]dioxin-6-yl)-1-hydroxy-3-(pyrrolidin-1-yl)propan-2-yl)-2,2-difluoro-2-(5-(trifluoromethyl)benzofuran-2-yl)acetamide] the IC50 was < 50 nM.

From patent US10227323B2, “Glucosylceramide synthase inhibitors for the treatment of diseases” (BIOMARIN PHARMACEUTICAL INC., priority 2013, dated 2019)
